Measured values as given in article PMC4869338 (Malaria Journal, 2016).
Several values for one entry are separate records, joined by “and”; a condition that tells them apart may be missing. Equal entries are not always repeated. Entries after “also recorded” stand apart in the source; their conditions may differ. Where two headings read alike, the source gives them in different places.

How the values were obtained:
[1] = humans; cited from earlier work
[2] = cited from earlier work
CYP2D6 = settings: cited from earlier work
[3] = target: T1, Recombinant human CYP 2D6 (Homo sapiens, UniProt P10635); assay: biochemical
Experimental: The samples were centrifuged at 15,700×g at 4 °C for 10 min, supernatants collected and analysed by liquid chromatography/tandem mass spectrometry (LC–MS/MS).
Analyte peaks were detected and quantified using a TSQ Quantum triple quadrupole mass spectrometer (Thermo Fisher Scientific, Waltham, MA, USA). Mass spectrometry conditions were optimized for each analyte (see Additional file 1 for masses and ion transitions). […] Samples were analysed with electrospray ionization in positive ion mode (source temperature 350 °C) by selected reaction monitoring at a collision pressure of 1.0 mTorr. Analyte peaks were detected and quantified using the Xcalibur software package.

CYP3A4 = settings: cited from earlier work
[4] = system: Plasmodium berghei sporozoites
Description: Drug suspensions were made and transferred to a 20-ml bottle, drawn into a 1-ml syringe, and delivered via oral feeder (18 gauge) to the designated recipient. […] Both liver and blood stages of P. berghei infections were monitored using the in vivo imaging system (IVIS) and flow cytometry as described in [29].

CYP2C9 = system: CYP2C9; design: method as in PMID 18691982; settings: cited from earlier work
CYP1A2 = system: CYP1A2; design: method as in PMID 18691982; settings: cited from earlier work
CYP2C19 = settings: cited from earlier work
[5] = cited from earlier work; remark: listed apart in the source
CYP 2D6 = settings: in vivo; cited from earlier work
[6] = target: T1, Recombinant human CYP 2D6; settings: sixty-minute incubation; previously reported; cited from earlier work
[7] = system: primary human hepatocytes; settings: 240-min incubation; previously reported; cited from earlier work
[8] = Mouse oral pharmacokinetics of primaquine and 5,6-orthoquinone with and without fluoxetine; settings: mice; oral primaquine 20 mg/kg; fluoxetine 4 mg/kg/day for 3 days
Experimental: Analyte peaks were detected and quantified using a TSQ Quantum triple quadrupole mass spectrometer (Thermo Fisher Scientific, Waltham, MA, USA). […] Chromatographic separations were achieved using a Waters XTerra MS C18 (2.1 × 50 mm, 3.5 μm) column (Milford, MA, USA) with a Phenomenex (4 × 20 mm, 3.5 µm) guard column (Torrance, CA, USA) at a flow rate of 0.35 ml/min. A 7-min linear gradient from 5 to 95 % acetonitrile (0.1 % formic acid) was utilized. Samples were analysed with electrospray ionization in positive ion mode (source temperature 350 °C) by selected reaction monitoring at a collision pressure of 1.0 mTorr. Analyte peaks were detected and quantified using the Xcalibur software package.
Briefly, male, 9–12-weeks old, wild-type, C57BL/6 mice (Taconic Biosciences, Germantown, NY, USA) were used for pharmacokinetic evaluations. On arrival, animals were acclimated for 7 days in quarantine. The animals were housed in a cage maintained at a temperature range of 18–26 °C, 34–68 % relative humidity and a 12-h light/dark cycle. Food and water were provided ad libitum during quarantine and throughout the study. The animals were fed a standard rodent maintenance diet.
Pharmacokinetic studies were performed using oral administration. […] For each timepoint, animals were euthanized and plasma and liver samples collected. […] Supernatant was collected and analysed by LC–MS/MS analyses.

[9] = system: primary human hepatocytes; assay: Primaquine metabolism in pooled primary human hepatocytes pre-treated with antidepressants; assay type: in vitro ADME; settings: antidepressant 10 μM pre-treatment 15 min; primaquine 1 μM; 4-h incubation
Experimental: Cryopreserved, pooled, human, primary hepatocytes were flash thawed in a 37 °C bath for 1 min. One vial of the thawed hepatocytes (5 million cells/vial) was added to 40 ml of pre-warmed thawing buffer, mixed thoroughly by gentle pipetting, and centrifuged at 72×g for 6 min. The supernatant was then aspirated and the pellet resuspended in hepatocyte incubation buffer (InVitroGRO HI media, BioreclamationIVT, Baltimore, MD, USA). The hepatocytes were then seeded onto 12-well culture plates, approximately 7 × 10^5 hepatocytes/ml per well, and incubated in a humidified 5 % CO2/95 % air incubator for 30 min prior to the addition of compounds.
All reactions were stopped by adding an equal volume of acetonitrile. […] The supernatant was collected and 200 μl of sample was loaded on to a 96-well LC–MS/MS plate for analysis. Samples were analysed immediately after sample collection.

T1 sequence (P10635 whole entry): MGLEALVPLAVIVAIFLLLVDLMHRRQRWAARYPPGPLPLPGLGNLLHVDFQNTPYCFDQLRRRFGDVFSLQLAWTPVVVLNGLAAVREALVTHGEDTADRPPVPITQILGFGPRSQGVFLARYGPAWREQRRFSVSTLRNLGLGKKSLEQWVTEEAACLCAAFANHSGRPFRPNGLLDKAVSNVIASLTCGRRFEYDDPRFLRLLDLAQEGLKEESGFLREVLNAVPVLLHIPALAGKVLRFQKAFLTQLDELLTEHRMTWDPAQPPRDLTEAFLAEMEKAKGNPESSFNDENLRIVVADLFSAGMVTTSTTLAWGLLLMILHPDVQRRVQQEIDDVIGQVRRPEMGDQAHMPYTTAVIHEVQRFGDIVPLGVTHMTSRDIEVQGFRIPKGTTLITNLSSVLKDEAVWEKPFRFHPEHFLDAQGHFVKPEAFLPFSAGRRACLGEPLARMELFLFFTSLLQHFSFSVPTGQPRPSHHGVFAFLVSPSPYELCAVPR

| SMILES | Enzymes involved in biotransformation [2] | Enzymes inhibited by antidepressant: CYP2D6 (CYP2D6) | IC50 [3] | Enzymes inhibited by antidepressant: CYP3A4 (CYP3A4) | Enzymes inhibited by antidepressant: CYP2C9 (CYP2C9) | further results |
| --- | --- | --- | --- | --- | --- | --- |
| CCN(CC)CCCC(C)Nc1ccnc2cc(Cl)ccc12 (stereo not drawn) [chloroquine] | – | – | – | – | – | primaquine exposure on co-administration [1]: significantly higher primaquine exposure |
| CN(C)CCCC1(c2ccc(F)cc2)OCc2cc(C#N)ccc21 (stereo not drawn) [citalopram] | CYP2C19, CYP2D6, and CYP3A4 | CYP2D6 (weak) | 9.28 µM | – | – | – |
| CN(C)CC(c1ccc(O)cc1)C1(O)CCCCC1 (stereo not drawn) [desvenlafaxine] | – | – | ~94 µM and 94.3 µM | CYP3A4 (weak) | – | – |
| CN(C)CCC[C@@]1(c2ccc(F)cc2)OCc2cc(C#N)ccc21 [escitalopram] | CYP2C19, CYP2D6, and CYP3A4 | CYP2D6 (weak) | 7.35 µM | – | – | – |
| CNCCC(Oc1ccc(C(F)(F)F)cc1)c1ccccc1 (stereo not drawn) [fluoxetine] | CYP2D6, CYP2C9, CYP2C19, and CYP3A4 | strong | – | weak to moderate | moderate | effect of fluoxetine co-administration on primaquine anti-malarial efficacy ([4]; fluoxetine 4 mg/kg/day for 5 days with primaquine 20 mg/kg/day for 3 days): reduced primaquine anti-malarial efficacy; also recorded: negatively impacted primaquine efficacy; Enzymes inhibited by antidepressant: CYP1A2 (CYP1A2): weak; Enzymes inhibited by antidepressant: CYP2C19 (CYP2C19): CYP2D6 (strong), CYP2C9 (moderate), CYP2C19, (weak to moderate), CYP3A4 (weak to moderate), CYP1A2 (weak); elimination half-life [5]: long; change of CYP 2D6 phenotype of human subjects (CYP 2D6): from extensive to poor metabolizers |
| NCCC(Oc1ccc(C(F)(F)F)cc1)c1ccccc1 (stereo not drawn) [nor-fluoxetine] | – | – | – | – | – | CYP 2D6 inhibition by major metabolite of fluoxetine (CYP2D6; no reference given): potent CYP 2D6 inhibitor; elimination half-life ([5]; in vivo): long |
| Fc1ccc([C@@H]2CCNC[C@H]2COc2ccc3c(c2)OCO3)cc1 [paroxetine] | CYP2D6 and CYP3A4 | CYP2D6 (strong), CYP1A2 (weak), CYP2C9 (weak), CYP2C19 (weak), CYP3A4 (weak) | – | CYP2D6 (strong), CYP1A2 (weak), CYP2C9 (weak), CYP2C19 (weak), CYP3A4 (weak) | CYP2D6 (strong), CYP1A2 (weak), CYP2C9 (weak), CYP2C19 (weak), CYP3A4 (weak) | Enzymes inhibited by antidepressant: CYP1A2 (CYP1A2): CYP2D6 (strong), CYP1A2 (weak), CYP2C9 (weak), CYP2C19 (weak), CYP3A4 (weak); Enzymes inhibited by antidepressant: CYP2C19 (CYP2C19): CYP2D6 (strong), CYP1A2 (weak), CYP2C9 (weak), CYP2C19 (weak), CYP3A4 (weak) |
| COc1cc(NC(C)CCCN)c2ncccc2c1 (stereo not drawn) [primaquine] | – | – | – | – | – | blood stage parasitaemia status throughout the 31-day experiment ([4]; flow cytometry, P. berghei infected mice): parasitaemia-free; primaquine metabolism signal by CYP 2D6 [6]: > 80%; primaquine metabolism signal in hepatocytes [7]: ~ 40%; pharmacokinetics of parent primaquine upon co-administration with fluoxetine [8]: not drastically altered |
| CN[C@H]1CC[C@@H](c2ccc(Cl)c(Cl)c2)c2ccccc21 [sertraline] | CYP2C9, CYP2C19, CYP2D6, and CYP3A4 | – | 4.35 µM | – | CYP2D6 (weak to moderate), CYP1A2 (weak), CYP2C9 (weak), CYP2C19 (weak), CYP3A4 (weak) | – |
| COc1ccc(C(CN(C)C)C2(O)CCCCC2)cc1 (stereo not drawn) [venlafaxine] | – | CYP2D6 (weak) | 19.1 µM | – | – | inhibition of primaquine metabolism in hepatocytes [9]: no inhibition of primaquine metabolism |
